Measurements as given in patent publication EP0226508A1, “Indolo[3,2-c]quinoline derivatives, process for their preparation and their anti-tumour activity” (priority 1985, dated 1987).

Tests used:
leucémie L 1210 = assay: In vivo antitumour activity, L 1210 leukemia test; design: species or system souris hybrides CDF₁; conditions: for Nombre de survivants: survivors at J 30
From the text: (§1) L'activité antitumorale a été testée in vivo sur différentes tumeurs selon le protocole général suivant:
(§2) Toutes les souris mâles ou femelles sont inoculées par voie intrapéritonéale au jour Jo avec une quantité déterminée de cellules tumorales viables, variable selon la tumeur.
(§3) Elles sont ensuite réparties en différents lots. Chaque lot correspondant aux animaux traités par le produit à tester à une dose déterminée est composé de 10 souris. Dans ce cas, le produit à tester est dissous dans l'eau distillée et il est administré, pendant n jours (J₁-Jn) variables selon le protocole choisi, par voie intrapéritonéale à raison de 0,1 ml par 10 g de poids des souris traitées, les doses du produit administré étant précisées dans les tableaux ci-dessous.
(§4) Le lot "contrôle négatif", correspondant aux animaux qui ne sont pas traités par un produit, comprend 2 √N animaux, N étant égal au nombre total de souris traitées par un produit.
(§5) Enfin, tous les essais sont conduits parallèlement à l'étude d'un lot appelé "contrôle positif" de 10 animaux qui est traité par une molécule active, variable selon le protocole choisi, dans les mêmes conditions que les lots traités par le produit à tester, afin de valider l'essai.
(§6) L'activité antitumorale est évaluée en considé-rant l'augmentation du temps de survie des animaux traités par rapport à celui des animaux du lot "contrôle négatif" selon la formule : [formula]
(§7) Un composé est considéré comme étant actif lorsque la valeur du rapport T/C est égale ou supérieure à 125 % selon le protocole retenu. Il est toxique lorsque cette valeur est égale ou inférieure à 85 %. Le produit est également considéré comme toxique lorsque la variation pondérale, exprimée en grammes et calculée par la formule : Poids moyen du lot mesuré au jour 5 -poids moyen du même lot au jour 1 est égale ou inférieure à - 4 g.
b) Test de la leucémie L 1210 (GERAN et al., Cancer Chemother, 1972, 2, 07-57).
Les essais sont effectués avec des souris hybrides CDF₁ inoculées avec 10⁵ cellules leucémiques de la lignée L 1210. Le composé à tester est administré pendant 5 jours (J₁-J₅).Le contrôle positif du test est le 5-fluorouracile administré dans les mêmes conditions. Le nombre d'animaux survivants est évalué au jour J 30. Un composé est considéré comme étant actif lorsque le rapport T/C est supérieur ou égal à 125 %.

mélanome B 16 = assay: In vivo antitumour activity, B 16 melanoma test; design: species or system souris hybrides BDF₁; conditions: B 16 melanoma; for Nombre de survivants: survivors at J 60
From the text: as §1, §2, §3, §4, §5, §6
Le produit est également considéré comme toxique lorsque la variation pondérale, exprimée en grammes et calculée par la formule : Poids moyen du lot mesuré au jour 5 -poids moyen du même lot au jour 1 est égale ou inférieure à - 4 g.
Les essais sont effectués avec des souris hybrides BDF₁ inoculées avec 0,5 ml d'un homogénat de mélanome B 16 réalisé à partir de 1 g de tumeur dans 10 ml de sérum physiologique. Le composé à tester est administré pendant 9 jours (J₁-J₉).Le contrôle positif du test est le Cis-Platine administré dans les mêmes conditions. Le nombre d'animaux survivants est évalué au jour J 60.

[1] = tested on: souris consanguines DBA₂ saines; assay: Acute toxicity, single intraperitoneal injection in healthy mice, mortality at day 7; format: in vivo; conditions: single i.p. injection, 50 mg/kg
leucémie P 388 = assay: animal or person; format: in vivo, souris hybrides CDF 1; conditions: for Variation pondérale en g: in vivo, ip; for Nombre de survivants: survivors at J 40
From the text: as §1, §2, §3, §4, §5, §6, §7
a) Test de la leucémie P 388 (GERAN et al., Cancer Chemother, 1972, 2, 07-57).
Les essais sont effectués avec des souris hybrides CDF 1 inoculées par voie intrapéritonéale avec 10⁶ cellules leucémiques de la lignée P 388. Le composé à tester est administré pendant 5 jours (J1-J5). Le contrôle positif du test est le 5-fluorouracile qui est administré dans les mêmes conditions. Le nombre d'animaux survivants est évalué au jour J 40. Un composé est considéré comme étant actif lorsque le rapport T/C est supérieur à 127 %.

[2] = tested on: lignée tumorale leucémie L 1210; assay: In vitro cytotoxic activity on L 1210 leukemia cell culture (inhibition of cell proliferation); format: cell-based; conditions: Mus musculus, L1210; L 1210 culture in exponential growth, 37°C, after 48 hours of contact; read-out: ID 50 (the source's name)
Experimental: 1) In vitro : (PAOLETTI et al., Chem. Biol. Interaction, 1979, 25, 45-58).
L'activité cytotoxique des composés de l'invention a été évaluée par des essais in vitro. Ces essais consistent à ajouter des concentrations croissantes du composé à tester à une culture cellulaire de la lignée tumorale leucémie L 1210 en phase exponentielle de croissance. Les cellules sont incubées à 37°C dans une étuve à CO₂ et comptées toutes les 24 heures. Le calcul de l'ID₅₀ (concentration du produit exprimée en micromole 1⁻¹ qui inhibe la prolifération cellulaire à 50 p. 100) est effectuée après 48 heures de contact. Ainsi déterminées les ID₅₀ des composés de l'invention sont rassemblées dans le tableau ci-après.

[3] = L 1210, CDF₁ mice, 5 mg/kg i.p. J1-J5
[4] = L 1210, CDF₁ mice, 10 mg/kg i.p. J1-J5
[5] = L 1210, CDF₁ mice, 20 mg/kg i.p. J1-J5
[6] = L 1210, CDF₁ mice, 30 mg/kg i.p. J1-J5
[7] = L 1210, CDF₁ mice, 1,25 mg/kg i.p. J1-J5
[8] = L 1210, CDF₁ mice, 2,5 mg/kg i.p. J1-J5
[9] = L 1210, CDF₁ mice, 7,5 mg/kg i.p. J1-J5
[10] = BDF₁ mice, 0,625 mg/kg i.p. J1-J9
[11] = BDF₁ mice, 1,25 mg/kg i.p. J1-J9
[12] = BDF₁ mice, 2,5 mg/kg i.p. J1-J9
[13] = Mus musculus, P388, ip, P 388, CDF 1 mice, 5 mg/kg i.p. J1-J5, read-out: T/C %

With `CCN(CC)CCCNc1nc2ccccc2c2[nH]c3ccc(O)cc3c12` [Dérivé N°11, (diéthylamino-3 propylamino)-6 hydroxy-8 11-H indolo[3,2-c]quinoléine] the “Jour médian de survie” value (leucémie L 1210; [3]) was 14,25, the T/C % (leucémie L 1210; [3]) was 160% and the Nombre de survivants (leucémie L 1210; [3]) was 0. For the same compound, the “Jour médian de survie” value (leucémie L 1210; [4]) was 12,25, the T/C % (leucémie L 1210; [4]) was 138% and the Nombre de survivants (leucémie L 1210; [4]) was 0. The “Jour médian de survie” value (leucémie L 1210; [5]) was 11,7, the T/C % (leucémie L 1210; [5]) was 131% and the Nombre de survivants (leucémie L 1210; [5]) was 0. The “Jour médian de survie” value (leucémie L 1210; [6]) was 8,3, the T/C % (leucémie L 1210; [6]) was 93% and the Nombre de survivants (leucémie L 1210; [6]) was 0. For the same compound, the “Jour médian de survie” value (leucémie L 1210; [7]) was 10,9, the T/C % (leucémie L 1210; [7]) was 122% and the Nombre de survivants (leucémie L 1210; [7]) was 0. For the same compound, the “Jour médian de survie” value (leucémie L 1210; [8]) was 12,75, the T/C % (leucémie L 1210; [8]) was 143% and the Nombre de survivants (leucémie L 1210; [8]) was 0. For the same compound, the “Jour médian de survie” value (leucémie L 1210; [9]) was 12,3, the T/C % (leucémie L 1210; [9]) was 138% and the Nombre de survivants (leucémie L 1210; [9]) was 0. The “Jour médian de survie” value (mélanome B 16; BDF₁ mice, 5 mg/kg i.p. J1-J9) was 31, the T/C % (mélanome B 16; BDF₁ mice, 5 mg/kg i.p. J1-J9) was 132% and the Nombre de survivants (mélanome B 16; BDF₁ mice, 5 mg/kg i.p. J1-J9) was 0. For the same compound, the “Jour médian de survie” value (mélanome B 16; [10]) was 29, the T/C % (mélanome B 16; [10]) was 123% and the Nombre de survivants (mélanome B 16; [10]) was 0. For the same compound, the “Jour médian de survie” value (mélanome B 16; [11]) was 40, the T/C % (mélanome B 16; [11]) was 170% and the Nombre de survivants (mélanome B 16; [11]) was 1. For the same compound, the “Jour médian de survie” value (mélanome B 16; [12]) was 38, the T/C % (mélanome B 16; [12]) was 162% and the Nombre de survivants (mélanome B 16; [12]) was 2. The “mortalité évaluée au septième jour après l'administration” value [1] was “aucune mortalité”, the response vs control in vivo at 5 mg/kg (leucémie P 388; [13]) was 154% and the response vs control in vivo at 1.25 mg/kg (leucémie P 388; Mus musculus, P388, ip, P 388, CDF 1 mice, 1,25 mg/kg i.p. J1-J5, read-out: T/C %) was 142%. The response vs control in vivo at 2.5 mg/kg (leucémie P 388; Mus musculus, P388, ip, P 388, CDF 1 mice, 2,5 mg/kg i.p. J1-J5, read-out: T/C %) was 152%, the response vs control in vivo at 15 mg/kg (leucémie P 388; Mus musculus, P388, ip, P 388, CDF 1 mice, 15,0 mg/kg i.p. J1-J5, read-out: T/C %) was 146% and the “Variation pondérale en g” value (leucémie P 388; 5 mg/kg) was “+ 0,6 g”. The IC50 [2] was 130 nM.
`CCN(CC)CCCNc1nc2ccccc2c2c1c1cc(O)ccc1n2C` [Dérivé N°3] was tested, and the “Jour médian de survie” value (leucémie L 1210; [3]) was 10,6, the T/C % (leucémie L 1210; [3]) was 129% and the Nombre de survivants (leucémie L 1210; [3]) was 0. For the same compound, the “Jour médian de survie” value (leucémie L 1210; [4]) was 11,3, the T/C % (leucémie L 1210; [4]) was 138% and the Nombre de survivants (leucémie L 1210; [4]) was 0. The “Jour médian de survie” value (mélanome B 16; [12]) was 36, the T/C % (mélanome B 16; [12]) was 138% and the Nombre de survivants (mélanome B 16; [12]) was 0. For the same compound, the “mortalité évaluée au septième jour après l'administration” value [1] was “aucune mortalité”, the response vs control in vivo at 5 mg/kg (leucémie P 388; [13]) was 155% and the response vs control in vivo at 10 mg/kg (leucémie P 388; Mus musculus, P388, ip, P 388, CDF 1 mice, 10 mg/kg i.p. J1-J5, read-out: T/C %) was 147%. For the same compound, the response vs control in vivo at 20 mg/kg (leucémie P 388; Mus musculus, P388, ip, P 388, CDF 1 mice, 20 mg/kg i.p. J1-J5, read-out: T/C %) was 149%, the Nombre de survivants (leucémie P 388; P 388, CDF 1 mice, 5 mg/kg i.p. J1-J5) was 0 and the Nombre de survivants (leucémie P 388; P 388, CDF 1 mice, 10 mg/kg i.p. J1-J5) was 0. For the same compound, the Nombre de survivants (leucémie P 388; P 388, CDF 1 mice, 20 mg/kg i.p. J1-J5) was 0, the “Variation pondérale en g” value (leucémie P 388; 5 mg/kg) was “+ 1,0 g” and the “Variation pondérale en g” value (leucémie P 388; 10 mg/kg) was “- 0,6 g”. For the same compound, the “Variation pondérale en g” value (leucémie P 388; 20 mg/kg) was “- 2,2 g” and the IC50 [2] was 60 nM.
